In PubChem BioAssay AID2060497 (Molecular Pharmacology Branch, DTP, NCI, 2025):

Tested on: 317291-083-R-J1-PDC complex spheroids, viability
Experiment: Anticancer human tumor 317291-083-R-J1-PDC patient-derived soft tissue sarcoma cell line growth inhibition [GQUAD]
Conditions: for IC50: curve of first compound; for viability, T/C: stronger effect = lower value
Text: DNA G-quadruplex Stabilizer Agents in Combinations in Complex Spheroids
A high-throughput screen of multi-cell type tumor spheroids was designed to identify active combinations of DNA G-quadruplex stabilizer agents and targeted small molecules. Complex spheroids include a stromal component modeled by human endothelial cells (HUVEC) and fibroblasts modeled by human mesenchymal stem cells (MSCs). The concentration ranges selected for each drug and investigational agent were based upon clinically achievable concentrations if the clinical Cmax of the agent was known.
Compounds. The drugs and investigational agents: pidnarulex (CX-5461; NSC782164), APTO-253 (NSC789042), BRACO-19 (NSC847499), peposertib (NSC802822), ceralasertib (NSC780249), elimusertib (NSC800525), camonsertib (NSC841442), AZD-1390 (NSC803789), olaparib (NSC753686), talazoparib (NSC767125), ART-558 (NSC835418), sotorasib (NSC818433), MRTX-1133 (NSC836407), SN-38 (NSC673596), topotecan (NSC609699), etoposide (NSC141540), doxorubicin (NSC123127), gemcitabine (NSC613327), 5-fluorouracil (NSC19893), paclitaxel (NSC125973), vemurafenib (NSC761431), panobinostat (NSC761190), R-306465 (JNJ-16241199; NSC773264), adavosertib (NSC754352), TP-3654 (NSC805149), carboplatin (NSC241240), KSQ-4279 (NSC840948), and staurosporine (NSC755774) were obtained from the National Cancer Institute (NCI) Developmental Therapeutics Program Chemical Repository (34). The FDA-approved anticancer drug set is available from the NCI Developmental Therapeutics Program. […] The stock solutions were prepared in dimethyl sulfoxide (DMSO, Sigma-Aldrich, St. Louis, MO, cat. D2650) at 800-fold the tested concentration and stored at -70 degrees C prior to their use. All drugs and investigational agents were tested over a range starting from a high concentration at or near the clinical Cmax and decreasing in half-log increments. If the clinical Cmax for an agent had not been determined, the highest concentration tested was 10 microM.
2.3 Cell Culture. All cells were maintained in an incubator at 37 degrees C and 5% CO2 with 95% humidity. The PDC lines were cultured according to standard operating procedures established by the NCI PDMR. All PDCs were thawed and cultured in Matrigel-coated flasks prepared with a working solution of 1X Ham's F-12 nutrient mix, without supplementation (Invitrogen, cat. 11765054), 100 U/mL penicillin-streptomycin (Invitrogen, cat. 15140122), and 2.5% Matrigel (Corning Inc., cat. 354248) for the first three passages. The 857933-349-R-J2-PDC line was cultured in 6C/Colon 1B media, which includes advanced DMEM/F-12 (Thermo Fisher Scientific, cat. 12634028), 10 mM HEPES (Thermo Fisher Scientific, cat. 15630080), 1X GlutaMAX supplement (Thermo Fisher Scientific, cat. 35050061), 0.1 mg/mL primocin (InvivoGen, cat. ant-pm-2), 10% defined fetal bovine serum, heat inactivated (HyClone Laboratories Inc., cat. SH30070.03HI), 50% L-WRN conditioned media (ATCC, cat. CRL-3276), 1.25 mM N-Acetyl-L-cysteine (Sigma-Aldrich, cat. A9165), 10 mM nicotinamide (Sigma-Aldrich, cat. N0636), 1X B-27 supplement (Thermo Fisher Scientific, cat. 17504044), 1X N-2 supplement (Thermo Fisher Scientific, cat. 17502048), 10 microM Y-27632 dihydrochloride (Tocris Bioscience, cat. 1254), and 50 ng/mL human EGF recombinant protein (Thermo Fisher Scientific, cat. PHG0311). The 485176-168-R4-J1-PDC line was cultured in Panc media, which includes all 6C/Colon 1B media components plus 100 ng/mL human FGF-10 (Thermo Fisher Scientific, cat. 100-26), 500 nM SB-431542 (Selleckchem, cat. S1067), and gastrin (Tocris, cat. 3006).
[…]

[1] = second compound 0.0316 µM, first compound 0.0316 µM
[2] = second compound 0.0316 µM, first compound 0.1 µM
[3] = second compound 0.0316 µM, first compound 0.316 µM
[4] = second compound 0.0316 µM, first compound 1 µM
[5] = second compound 0.0316 µM, first compound 3.16 µM
[6] = second compound 0.0316 µM, first compound 10 µM
[7] = second compound 0.1 µM, first compound 0.0316 µM
[8] = second compound 0.1 µM, first compound 0.1 µM
[9] = second compound 0.1 µM, first compound 0.316 µM
[10] = second compound 0.1 µM, first compound 1 µM
[11] = second compound 0.1 µM, first compound 3.16 µM
[12] = second compound 0.1 µM, first compound 10 µM
[13] = second compound 0.316 µM, first compound 0.0316 µM
[14] = second compound 0.316 µM, first compound 0.1 µM
[15] = second compound 0.316 µM, first compound 0.316 µM
[16] = second compound 0.316 µM, first compound 1 µM
[17] = second compound 0.316 µM, first compound 3.16 µM
[18] = second compound 0.316 µM, first compound 10 µM
[19] = second compound 1 µM, first compound 0.0316 µM
[20] = second compound 1 µM, first compound 0.1 µM
[21] = second compound 1 µM, first compound 0.316 µM
[22] = second compound 1 µM, first compound 1 µM
[23] = second compound 1 µM, first compound 3.16 µM
[24] = second compound 1 µM, first compound 10 µM
[25] = second compound 3.16 µM, first compound 0.0316 µM
[26] = second compound 3.16 µM, first compound 0.1 µM
[27] = second compound 3.16 µM, first compound 0.316 µM
[28] = second compound 3.16 µM, first compound 1 µM
[29] = second compound 3.16 µM, first compound 3.16 µM
[30] = second compound 3.16 µM, first compound 10 µM
[31] = second compound 10 µM, first compound 0.0316 µM
[32] = second compound 10 µM, first compound 0.1 µM
[33] = second compound 10 µM, first compound 0.316 µM
[34] = second compound 10 µM, first compound 1 µM
[35] = second compound 10 µM, first compound 3.16 µM
[36] = second compound 10 µM, first compound 10 µM
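Also: spheroids exposed to compounds for one week before readout.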
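For viability, T/C in this document: percent viability relative to DMSO vehicle wells taken as 100%.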

`COc1cc(C2c3cc4c(cc3C(OC3OC5COC(C)OC5C(O)C3O)C3COC(=O)C23)OCO4)cc(OC)c1O` (centres undefined) + CN(C)c1ccc(Nc2c3ccc(NC(=O)CCN4CCCC4)cc3nc3cc(NC(=O)CCN4CCCC4)ccc23)cc1 gave an IC50 (second compound 0.0316 µM) of 310 nM, an IC50 (second compound 0.1 µM) of 357 nM and an IC50 (second compound 0.316 µM) of 283 nM. It also gave an IC50 (second compound 1 µM) of 55.4 nM, an IC50 (second compound 3.16 µM) of under 31.6 nM and an IC50 (second compound 10 µM) of under 31.6 nM. It also gave a viability, T/C [1] of 89.9%, a viability, T/C [2] of 82.2% and a viability, T/C [3] of 48.9%. It also gave a viability, T/C [4] of 26.8%, a viability, T/C [5] of 19.4% and a viability, T/C [6] of 21.7%. For the same molecule, the viability, T/C [7] was 92.1%, the viability, T/C [8] was 86% and the viability, T/C [9] was 50.4%. The viability, T/C [10] was 29.6%, the viability, T/C [11] was 15.7% and the viability, T/C [12] was 18.1%. It also gave a viability, T/C [13] of 79.8%, a viability, T/C [14] of 71.9% and a viability, T/C [15] of 46.8%. For the same molecule, the viability, T/C [16] was 26.1%, the viability, T/C [17] was 20.1% and the viability, T/C [18] was 12.3%. It also gave a viability, T/C [19] of 62.1%, a viability, T/C [20] of 37.9% and a viability, T/C [21] of 20.7%. The viability, T/C [22] was 15.7%, the viability, T/C [23] was 13.5% and the viability, T/C [24] was 7.56%. For the same molecule, the viability, T/C [25] was 39%, the viability, T/C [26] was 12.5% and the viability, T/C [27] was 21.5%. The viability, T/C [28] was 9.89%, the viability, T/C [29] was 8.39% and the viability, T/C [30] was 6.12%. For the same molecule, the viability, T/C [31] was 12.7%, the viability, T/C [32] was 8.34% and the viability, T/C [33] was 4.76%. The viability, T/C [34] was 7.68%, the viability, T/C [35] was 5.05% and the viability, T/C [36] was 0.99%.

`C=CC(=O)N1CCN(c2nc(=O)n(-c3c(C)ccnc3C(C)C)c3nc(-c4c(O)cccc4F)c(F)cc23)C(C)C1` (centres undefined) + Cc1cnc(CNC(=O)c2c(=O)c3ccc(N4CCCN(C)CC4)nc3n3c2sc2ccccc23)cn1 gave an IC50 (second compound 0.0316 µM) of over 10000 nM, an IC50 (second compound 0.1 µM) of 8780 nM and an IC50 (second compound 0.316 µM) of 4430 nM. For the same molecule, the IC50 (second compound 1 µM) was 153 nM, the IC50 (second compound 3.16 µM) was under 31.6 nM and the IC50 (second compound 10 µM) was under 31.6 nM. It also gave a viability, T/C [1] of 101%, a viability, T/C [2] of 84.2% and a viability, T/C [3] of 101%. For the same molecule, the viability, T/C [4] was 92.8%, the viability, T/C [5] was 86.2% and the viability, T/C [6] was 65%. It also gave a viability, T/C [7] of 79.1%, a viability, T/C [8] of 88.6% and a viability, T/C [9] of 91%. The viability, T/C [10] was 95.8%, the viability, T/C [11] was 70.1% and the viability, T/C [12] was 47.5%. For the same molecule, the viability, T/C [13] was 65.7%, the viability, T/C [14] was 68.7% and the viability, T/C [15] was 54.4%. For the same molecule, the viability, T/C [16] was 63.7%, the viability, T/C [17] was 46.9% and the viability, T/C [18] was 47.3%. For the same molecule, the viability, T/C [19] was 59.1%, the viability, T/C [20] was 61.9% and the viability, T/C [21] was 31.9%. It also gave a viability, T/C [22] of 27.4%, a viability, T/C [23] of 30.9% and a viability, T/C [24] of 14.8%. It also gave a viability, T/C [25] of 21.3%, a viability, T/C [26] of 21.2% and a viability, T/C [27] of 41.6%. It also gave a viability, T/C [28] of 12.3%, a viability, T/C [29] of 13.8% and a viability, T/C [30] of 14.6%. It also gave a viability, T/C [31] of 22%, a viability, T/C [32] of 63.3% and a viability, T/C [33] of 22.2%. For the same molecule, the viability, T/C [34] was 13.2%, the viability, T/C [35] was 35.4% and the viability, T/C [36] was 6.85%.
